Test results published in article PMC6979384, “Characterization of the plant homeodomain (PHD) reader family for their histone tail interactions” (Epigenetics & Chromatin, 2020).

What was measured:
Assay in all cases: Histone peptide microarray
Format in all cases: binding, human
Conditions in all cases: sheet "Array Heatmap"
[1] = test system: AIRE (PP)
Outline: (§1)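 GST-tagged PHD readers, 0.5 μM, probed on a microarray of 293 synthetic histone peptides carrying single or combinatorial PTMs (optimized Petell protocol). Signals are averaged over 4 replicates and expressed as relative binding.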

[2] = test system: BAZ2B
Outline: as §1

[3] = test system: BPTF (PB)
Outline: as §1

[4] = test system: CHD4 (PPCC)
Outline: as §1

[5] = test system: CHD5 (PCC)
Outline: as §1

[6] = test system: CHD5 (PPCC)
Outline: as §1

[7] = test system: DIDO1
Outline: as §1

[8] = test system: DPF2 (PPC2W2)
Outline: as §1

[9] = test system: ING1
Outline: as §1

[10] = test system: ING2
Outline: as §1

[11] = test system: ING3
Outline: as §1

[12] = test system: ING4
Outline: as §1

[13] = test system: ING5
Outline: as §1

[14] = test system: KDM4C (TTP)
Outline: as §1

[15] = test system: KDM5A (1)
Outline: as §1

[16] = test system: KDM5A (3)
Outline: as §1

[17] = test system: KDM5B (1)
Outline: as §1

[18] = test system: KDM5B (3)
Outline: as §1

[19] = test system: KDM7A
Outline: as §1

[20] = test system: MLL5
Outline: as §1

[21] = test system: MORC3 (CW)
Outline: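 A peptide microarray holding 293 synthetic histone peptides with individual or combinatorial modifications was probed with each GST-PHD protein at 0.5 μM. Values represent mean intensity (±SD) from four replicates.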

[22] = test system: PHF13
Outline: as §1

[23] = test system: PHF21A
Outline: as §1

[24] = test system: PHF23
Outline: as §1

[25] = test system: PHF2
Outline: as §1

[26] = test system: PHF8
Outline: as §1

[27] = test system: PHRF1 (RP)
Outline: as §1

[28] = test system: RAG2
Outline: as §1

[29] = test system: SP140L
Outline: as §1

[30] = test system: TAF3
Outline: as §1

[31] = test system: TRIM66 (PB)
Outline: as §1

[32] = GST-tagged reader, histone peptide array, total n = 4

Substance: H3 (1-25): H3 1-25
- Array Heatmap signal, AIRE (PP) [1, 32]: 0.5222
- Array Heatmap signal, BAZ2B [2, 32]: 0.4554
- Array Heatmap signal, BPTF (PB) [3, 32]: 0.3452
- Array Heatmap signal, CHD4 (PPCC) [4, 32]: 0.5563
- Array Heatmap signal, CHD5 (PCC) [5, 32]: 0.8391
- Array Heatmap signal, CHD5 (PPCC) [6, 32]: 0.5322
- Array Heatmap signal, DIDO1 [7, 32]: 0.658
- Array Heatmap signal, DPF2 (PPC2W2) [8, 32]: 0.7357
- Array Heatmap signal, ING1 [9, 32]: 0.5226
- Array Heatmap signal, ING2 [10, 32]: 0.6234
- Array Heatmap signal, ING3 [11, 32]: 0.4651
- Array Heatmap signal, ING4 [12, 32]: 0.4369
- Array Heatmap signal, ING5 [13, 32]: 0.3412
- Array Heatmap signal, KDM4C (TTP) [14, 32]: 0.4415
- Array Heatmap signal, KDM5A (1) [15, 32]: 0.4713
- Array Heatmap signal, KDM5A (3) [16, 32]: 0.6477
- Array Heatmap signal, KDM5B (1) [17, 32]: 0.6949
- Array Heatmap signal, KDM5B (3) [18, 32]: 0.5183
- Array Heatmap signal, KDM7A [19, 32]: 0.3768
- Array Heatmap signal, MLL5 [20, 32]: 0.57
- Array Heatmap signal, MORC3 (CW) [21, 32]: 0.6357
- Array Heatmap signal, PHF13 [22, 32]: 0.6012
- Array Heatmap signal, PHF21A [23, 32]: 0.4429
- Array Heatmap signal, PHF23 [24, 32]: 0.5406
- Array Heatmap signal, PHF2 [25, 32]: 0.5334
- Array Heatmap signal, PHF8 [26, 32]: 0.366
- Array Heatmap signal, PHRF1 (RP) [27, 32]: 0.8507
- Array Heatmap signal, RAG2 [28, 32]: 0.2539
- Array Heatmap signal, SP140L [29, 32]: 0.342
- Array Heatmap signal, TAF3 [30, 32]: 0.2692
- Array Heatmap signal, TRIM66 (PB) [31, 32]: 0.9221

Substance: H3 (1-32): H3 1-32
- Array Heatmap signal, AIRE (PP) ([1]; GST-tagged AIRE (PP), arrays performed twice, total replicate number n = 4): 0.4331
- Array Heatmap signal, BAZ2B ([2]; GST-tagged BAZ2B, arrays performed twice, total replicate number n = 4): 0.4644
- Array Heatmap signal, BPTF (PB) ([3]; GST-tagged BPTF (PB), arrays performed twice, total replicate number n = 4): 0.3386
- Array Heatmap signal, CHD4 (PPCC) ([4]; GST-tagged CHD4 (PPCC), arrays performed twice, total replicate number n = 4): 0.5584
- Array Heatmap signal, CHD5 (PCC) ([5]; GST-tagged CHD5 (PCC), arrays performed twice, total replicate number n = 4): 0.752
- Array Heatmap signal, CHD5 (PPCC) ([6]; GST-tagged CHD5 (PPCC), arrays performed twice, total replicate number n = 4): 0.5395
- Array Heatmap signal, DIDO1 ([7]; GST-tagged DIDO1, arrays performed twice, total replicate number n = 4): 0.6427
- Array Heatmap signal, DPF2 (PPC2W2) ([8]; GST-tagged DPF2 (PPC2W2), arrays performed twice, total replicate number n = 4): 0.6414
- Array Heatmap signal, ING1 ([9]; GST-tagged ING1, arrays performed twice, total replicate number n = 4): 0.5053
- Array Heatmap signal, ING2 ([10]; GST-tagged ING2, arrays performed twice, total replicate number n = 4): 0.5998
- Array Heatmap signal, ING3 ([11]; GST-tagged ING3, arrays performed twice, total replicate number n = 4): 0.4534
- Array Heatmap signal, ING4 ([12]; GST-tagged ING4, arrays performed twice, total replicate number n = 4): 0.4381
- Array Heatmap signal, ING5 ([13]; GST-tagged ING5, arrays performed twice, total replicate number n = 4): 0.344
- Array Heatmap signal, KDM4C (TTP) ([14]; GST-tagged KDM4C (TTP), arrays performed twice, total replicate number n = 4): 0.4465
- Array Heatmap signal, KDM5A (1) ([15]; GST-tagged KDM5A (1), arrays performed twice, total replicate number n = 4): 0.4672
- Array Heatmap signal, KDM5A (3) ([16]; GST-tagged KDM5A (3), arrays performed twice, total replicate number n = 4): 0.5232
- Array Heatmap signal, KDM5B (1) ([17]; GST-tagged KDM5B (1), arrays performed twice, total replicate number n = 4): 0.6889
- Array Heatmap signal, KDM5B (3) ([18]; GST-tagged KDM5B (3), arrays performed twice, total replicate number n = 4): 0.4939
- Array Heatmap signal, KDM7A ([19]; GST-tagged KDM7A, arrays performed twice, total replicate number n = 4): 0.308
- Array Heatmap signal, MLL5 ([20]; GST-tagged MLL5, arrays performed twice, total replicate number n = 4): 0.5257
- Array Heatmap signal, MORC3 (CW) ([21]; GST-tagged MORC3 (CW), arrays performed twice, total replicate number n = 4): 0.4518
- Array Heatmap signal, PHF13 ([22]; GST-tagged PHF13, arrays performed twice, total replicate number n = 4): 0.5781
- Array Heatmap signal, PHF21A ([23]; GST-tagged PHF21A, arrays performed twice, total replicate number n = 4): 0.4399
- Array Heatmap signal, PHF23 ([24]; GST-tagged PHF23, arrays performed twice, total replicate number n = 4): 0.5255
- Array Heatmap signal, PHF2 ([25]; GST-tagged PHF2, arrays performed twice, total replicate number n = 4): 0.514
- Array Heatmap signal, PHF8 ([26]; GST-tagged PHF8, arrays performed twice, total replicate number n = 4): 0.3413
- Array Heatmap signal, PHRF1 (RP) ([27]; GST-tagged PHRF1 (RP), arrays performed twice, total replicate number n = 4): 0.6359
- Array Heatmap signal, RAG2 ([28]; GST-tagged RAG2, arrays performed twice, total replicate number n = 4): 0.2569
- Array Heatmap signal, SP140L ([29]; GST-tagged SP140L, arrays performed twice, total replicate number n = 4): 0.3492
- Array Heatmap signal, TAF3 ([30]; GST-tagged TAF3, arrays performed twice, total replicate number n = 4): 0.2681
- Array Heatmap signal, TRIM66 (PB) ([31]; GST-tagged TRIM66 (PB), arrays performed twice, total replicate number n = 4): 0.7057
